Target: T1, mouse HCN2 (Mus musculus, UniProt O88703)
T1 sequence (O88703 1-863): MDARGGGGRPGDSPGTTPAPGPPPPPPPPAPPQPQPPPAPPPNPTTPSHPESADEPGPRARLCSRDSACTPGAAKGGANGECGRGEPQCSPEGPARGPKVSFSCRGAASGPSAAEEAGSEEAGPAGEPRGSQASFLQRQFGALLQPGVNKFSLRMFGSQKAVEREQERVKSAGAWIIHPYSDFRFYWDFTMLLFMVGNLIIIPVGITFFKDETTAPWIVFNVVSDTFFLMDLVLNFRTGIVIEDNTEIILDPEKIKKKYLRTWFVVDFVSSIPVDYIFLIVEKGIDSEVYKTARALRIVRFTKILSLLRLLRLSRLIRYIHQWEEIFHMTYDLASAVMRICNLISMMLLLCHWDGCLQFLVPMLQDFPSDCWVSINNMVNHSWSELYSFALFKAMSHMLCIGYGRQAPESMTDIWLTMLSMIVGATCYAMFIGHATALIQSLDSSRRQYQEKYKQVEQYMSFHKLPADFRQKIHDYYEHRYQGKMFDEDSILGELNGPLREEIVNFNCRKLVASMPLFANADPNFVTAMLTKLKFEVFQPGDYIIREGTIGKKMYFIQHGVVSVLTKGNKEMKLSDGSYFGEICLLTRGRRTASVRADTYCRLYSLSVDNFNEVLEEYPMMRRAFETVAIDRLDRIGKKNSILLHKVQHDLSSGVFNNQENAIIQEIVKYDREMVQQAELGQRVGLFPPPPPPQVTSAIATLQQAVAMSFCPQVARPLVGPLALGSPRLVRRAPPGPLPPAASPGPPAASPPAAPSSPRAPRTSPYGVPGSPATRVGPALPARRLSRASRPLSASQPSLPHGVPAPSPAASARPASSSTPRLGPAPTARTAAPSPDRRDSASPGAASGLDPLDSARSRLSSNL
Assay: patch clamp, excised inside-out patches from HEK cells
Type: biochemical
Conditions: open-channel pore blocker

`CCN(c1ccccc1)c1cc(NC)[n+](C)c(C)n1` [ZD7288] was tested, and the “% inhibition at 200 μM” value was “mean relative inhibition of zebrafish HCNL1 and mouse HCN2 in response to ZD7288”.

Reference: article PMC7306766 (Proceedings of the National Academy of Sciences of the …, 2020)
